Measured values reported in patent US10941150B2, “Salt type and crystal type of 4h-pyrazolo [1, 5-alpha] benzimidazole compound and preparation method and intermediate thereof” (HUBEI BIO-PHARMACEUTICAL INDUSTRIAL TECHNOLOGICAL INSTITUTE …, priority 2015, dated 2021).
pIC50: −log10 of the molar value. Where two headings read alike, the source gives them in different places. Values belong to the compound of their own block, whether it stands above or below them.

Legend:
MDA-MB-231 cells = assay: Anti-proliferation test (CCK8), singly and combined with TMZ; format: cell-based; conditions: for pIC50: 8 days; for PF50: PF50=[IC50 of the tested compound]/[IC50 at fixed TMZ concentration]
Method: (§1) MDA-MB-436 and MDA-MB-231 cells were seeded in a 96-well plate at a density of 500 and 2000 cell per well, respectively, and cultured overnight. The medium was RPMI 1640 containing 10% (v/v) FBS and 1% (v/v) penicillin-streptomycin. They were treated for 8 days after the compound to be tested was added. Cell viability was measured by CCK8 kit. Specifically, 10 µL CCK8 reagent was added to each well and incubated in a 5% CO2 incubator at 37° C. for 3 hours. After shaking for 10 minutes, the light absorbance (OD value) was measured with a Flexstation III (Molecular Device) at 450 nm.
(§2) For the test of compound combinations (in combination with DNA damage drugs), the PF50 value was used to calculate the synergistic effect of the drug. PF50=[IC50 of the tested compound]/[IC50 of the compound at a fixed DNA damage drug concentration]. Temozolomide (TMZ) was used as DNA damage drug in this study.

MDA-MB-436 cells = assay: as above; format: cell-based; conditions: for pIC50: 8 days; for PF50: PF50=[IC50 of the tested compound]/[IC50 at fixed TMZ concentration]
Method: as §1, §2

[1] = Solid stability test for Crystal type A under high temperature, high humidity and strong illumination; format: physicochemical
Method: The sample placed at 60° C. and 92.5% relative humidity was sealed with aluminum foil at the vial mouth, and the aluminum foil was pricked to ensure that the sample was fully exposed to the ambient air; the sample placed under strong illumination (5Klux) was sealed with a screw cap. The samples placed under different conditions were sampled and tested on the 10th day. The test results were compared with the initial test results on the 0th day.

[2] = Stability test for Crystal type A in different solvents; format: physicochemical; conditions: for Results (crystalline state by XRPD): 3 days
From the text: After being stirred for 3 days, the samples were centrifuged and the solid in all samples were collected. XRPD was used to determine the crystalline state.

[3] = Homo sapiens, MDA-MB-231, 192 h, MDA-MB-231, combined with 1uM TMZ, average, read-out: IC50_Avg
[4] = Homo sapiens, MDA-MB-231, 192 h, MDA-MB-231, combined with 1uM TMZ, run N=1, read-out: IC50_N = 1
[5] = Homo sapiens, MDA-MB-231, 192 h, MDA-MB-231, combined with 1uM TMZ, run N=2, read-out: IC50_N = 2
[6] = Homo sapiens, MDA-MB-231, 192 h, MDA-MB-231, used singly, average, read-out: IC50_Avg
[7] = Homo sapiens, MDA-MB-231, 192 h, MDA-MB-231, used singly, run N=1, read-out: IC50_N = 1
[8] = Homo sapiens, MDA-MB-231, 192 h, MDA-MB-231, used singly, run N=2, read-out: IC50_N = 2
[9] = MDA-MB-231, combined with 1uM TMZ
[10] = Homo sapiens, MDA-MB-436, 192 h, MDA-MB-436, combined with 25uM TMZ, average, read-out: IC50_Avg
[11] = Homo sapiens, MDA-MB-436, 192 h, MDA-MB-436, combined with 25uM TMZ, run N=1, read-out: IC50_N = 1
[12] = Homo sapiens, MDA-MB-436, 192 h, MDA-MB-436, combined with 25uM TMZ, run N=2, read-out: IC50_N= 2
[13] = Homo sapiens, MDA-MB-436, 192 h, MDA-MB-436, used singly, average, read-out: IC50_Avg
[14] = Homo sapiens, MDA-MB-436, 192 h, MDA-MB-436, used singly, run N=1, read-out: IC50_N = 1
[15] = Homo sapiens, MDA-MB-436, 192 h, MDA-MB-436, used singly, run N=2, read-out: IC50_N= 2
[16] = MDA-MB-436, combined with 25uM TMZ
[17] = Strong illumination (sealed), 5Klux, day 10

- pIC50 (MDA-MB-231 cells; [3]): 4.51
- pIC50 (MDA-MB-231 cells; [4]): 4.59
- pIC50 (MDA-MB-231 cells; [5]): 4.44
- pIC50 (MDA-MB-231 cells; [6]): 4.39
- pIC50 (MDA-MB-231 cells; [7]): 4.36
- pIC50 (MDA-MB-231 cells; [8]): 4.43
- pIC50 (MDA-MB-436 cells; [10]): 7.74
- pIC50 (MDA-MB-436 cells; [11]): 7.59
- pIC50 (MDA-MB-436 cells; [12]): 8.00
- pIC50 (MDA-MB-436 cells; [13]): 6.52
- pIC50 (MDA-MB-436 cells; [14]): 6.35
- pIC50 (MDA-MB-436 cells; [15]): 6.78
Compound: C[C@]1(c2nc3c(C(N)=O)cccc3[nH]2)CCCN1 [ABT-888, Veliparib]
- PF50 (MDA-MB-231 cells; [9]): 1.32
- PF50 (MDA-MB-436 cells; [16]): 17.14

Compound: CC(C)N1CCC(C)(c2cnn3c2[nH]c2cc(F)cc(C(N)=O)c23)CC1 [Compound 1, 6-fluoro-3-(1-isopropyl-4-methylpiperidin-4-yl)-4H-benzo[4,5]imidazo[1,2-b]pyrazol-8-carboxamide]
- pIC50 (MDA-MB-231 cells; [3]): 5.31
- pIC50 (MDA-MB-231 cells; [4]): 5.40
- pIC50 (MDA-MB-231 cells; [5]): 5.24
- pIC50 (MDA-MB-231 cells; [6]): 5.23
- pIC50 (MDA-MB-231 cells; [7]): 5.21
- pIC50 (MDA-MB-231 cells; [8]): 5.26
- PF50 (MDA-MB-231 cells; [9]): 1.20
- inhibitory effect on cell line (MDA-MB-436 cells; BRAC mutant MDA-MB-436 cell line): strong inhibitory effect
- pIC50 (MDA-MB-436 cells; [10]): 8.15
- pIC50 (MDA-MB-436 cells; [11]): 8.05
- pIC50 (MDA-MB-436 cells; [12]): 8.30
- pIC50 (MDA-MB-436 cells; [13]): 7.15
- pIC50 (MDA-MB-436 cells; [14]): 7.05
- pIC50 (MDA-MB-436 cells; [15]): 7.28
- PF50 (MDA-MB-436 cells; [16]): 9.84
- synergistic effect (MDA-MB-436 cells; combined with TMZ): good synergistic effect

Compound: CC(C)N1CCC(C)(c2cnn3c2[nH]c2cc(F)cc(C(N)=O)c23)CC1.O=C(O)/C=C\C(=O)O [Crystal type A, 6-fluoro-3-(1-isopropyl-4-methylpiperidin-4-yl)-4H-benzo[4,5]imidazo[1,2-b]pyrazol-8-formamide.maleate monohydrate]
- Appearance ([1]; 60° C. (open), day 10): White powder
- Content (%) ([1]; 60° C. (open), day 10): 98.5%
- Total impurities (%) ([1]; 60° C. (open), day 10): 0.11%
- Appearance ([1]; 92.5% RH (open), day 10): White powder
- Content (%) ([1]; 92.5% RH (open), day 10): 99.5%
- Total impurities (%) ([1]; 92.5% RH (open), day 10): 0.10%
- Appearance [1, 17]: White powder
- Content (%) [1, 17]: 99.4%
- Total impurities (%) [1, 17]: 0.11%
- Appearance ([1]; initial, day 0): White powder
- Content (%) ([1]; initial, day 0): 98.9%
- Total impurities (%) ([1]; initial, day 0): 0.10%
- Appearance (3 days) ([2]; Acetone, 25° C.): Suspension
- Results (crystalline state by XRPD) ([2]; Acetone, stirred at 25° C.): Crystal type A
- Appearance (3 days) ([2]; Acetone:water = 1:2, 25° C.): Suspension
- Results (crystalline state by XRPD) ([2]; Acetone:water = 1:2, stirred at 25° C.): Crystal type A
- Appearance (3 days) ([2]; Acetonitrile:water = 1:1, 25° C.): Suspension
- Results (crystalline state by XRPD) ([2]; Acetonitrile:water = 1:1, stirred at 25° C.): Crystal type A
- Appearance (3 days) ([2]; Ethanol, 25° C.): Suspension
- Results (crystalline state by XRPD) ([2]; Ethanol, stirred at 25° C.): Crystal type A
- Appearance (3 days) ([2]; Ethanol:water = 3:1, 25° C.): Suspension
- Results (crystalline state by XRPD) ([2]; Ethanol:water = 3:1, stirred at 25° C.): Crystal type A
- Appearance (3 days) ([2]; Ethyl acetate, 25° C.): Suspension
- Results (crystalline state by XRPD) ([2]; Ethyl acetate, stirred at 25° C.): Crystal type A
- Appearance (3 days) ([2]; Isopropanol, 25° C.): Suspension
- Results (crystalline state by XRPD) ([2]; Isopropanol, stirred at 25° C.): Crystal type A
- Appearance (3 days) ([2]; Isopropanol:water = 1:1, 25° C.): Suspension
- Results (crystalline state by XRPD) ([2]; Isopropanol:water = 1:1, stirred at 25° C.): Crystal type A
- Appearance (3 days) ([2]; Methanol, 25° C.): Suspension
- Results (crystalline state by XRPD) ([2]; Methanol, stirred at 25° C.): Crystal type A
- Appearance (3 days) ([2]; Methanol:water = 3:1, 25° C.): Suspension
- Results (crystalline state by XRPD) ([2]; Methanol:water = 3:1, stirred at 25° C.): Crystal type A

- pIC50 (MDA-MB-231 cells; [6]): 5.38
- pIC50 (MDA-MB-231 cells; [7]): 5.34
- pIC50 (MDA-MB-231 cells; [8]): 5.43
- pIC50 (MDA-MB-231 cells; MDA-MB-231, used singly, average, read-out: IC50_Avg): 5.47
- pIC50 (MDA-MB-231 cells; MDA-MB-231, used singly, run N=1, read-out: IC50_N = 1): 5.48
- pIC50 (MDA-MB-231 cells; MDA-MB-231, used singly, run N=2, read-out: IC50_N = 2): 5.45
- pIC50 (MDA-MB-436 cells; [13]): 3.95
- pIC50 (MDA-MB-436 cells; [14]): 4.10
- pIC50 (MDA-MB-436 cells; MDA-MB-436, used singly, average, read-out: IC50_Avg): 3.97
- pIC50 (MDA-MB-436 cells; MDA-MB-436, used singly, run N=1, read-out: IC50_N = 1): 3.82
Compound: Cn1nnc2c(C(N)=O)ncn2c1=O [TMZ, temozolomide]
